test system: TEAD transcriptional activity; assay: Inhibition of TEAD-driven transcription (8×GTIIC-luciferase reporter assay); type: cell-based; settings: 40 μM at 24 hour treatment
Description: The compounds were tested for their ability to inhibit TEAD-driven transcription.
8×GTIIC-luciferase plasmid, containing 8 TEAD binding sites (ACATTCCA), was obtained from Addgene (Addgene #34615). MDA-MB-231 cells were transfected with 8×GTIIC-luciferase and stable clone was obtained using neomycin selection. The TEAD transcriptional activity was monitored by assessing the luciferase activity using luciferase assay system (Promega). Each data point represents mean±standard deviation.

Question: With C=CC(=O)N1CCC[C@@H](Oc2cccc(C(F)(F)F)c2)C1 [Compound I-21] as the compound, how does the inhibition at 40 µM read?
Answer: The inhibition at 40 µM was 70%.

Question: Which inhibition at 40 µM does the source give for O=C(CCl)N1CCC(Nc2cccc(C(F)(F)F)c2)C1 (stereo not shown) [Compound I-10, 2-chloro-1-(3-((3-(trifluoromethyl)phenyl)amino)pyrrolidin-1-yl)ethan-1-one] here?
Answer: The inhibition at 40 µM was 90%.

Question: O=C(CCl)N1CCC[C@@H](Nc2cccc(C(F)(F)F)c2)C1 [Compound I-2, (R)-2-chloro-1-(3-((3-(trifluoromethyl)phenyl)amino)piperidin-1-yl)ethan-1-one] was tested. Which inhibition at 40 µM did it give?
Answer: Its inhibition at 40 µM is 50%.

Question: With C=CC(=O)N1CC[C@H](Nc2cc(C(F)(F)F)cc(C(F)(F)F)c2)C1 [Compound I-50, (S)-1-(3-((3,5-bis(trifluoromethyl)phenyl)amino)pyrrolidin-1-yl)prop-2-en-1-one] as the compound, how does the inhibition at 40 µM read?
Answer: Its inhibition at 40 µM is 90%.

Question: How did the inhibition at 40 µM turn out when C=CC(=O)N1CC[C@H](Nc2cc(C(F)(F)F)ccc2Cl)C1 [Compound I-51, (S)-1-(3-((2-chloro-5-(trifluoromethyl)phenyl)amino)pyrrolidin-1-yl)prop-2-en-1-one] was run?
Answer: Its inhibition at 40 µM is 90%.

Question: How did the inhibition at 40 µM turn out when C=CC(=O)N1CC[C@H](Oc2cccc(C(F)(F)F)c2)C1 [Compound I-58, (S)-1-(3-(3-(trifluoromethyl)phenoxy)pyrrolidin-1-yl)prop-2-en-1-one] was run?
Answer: The inhibition at 40 µM was 70%.

Question: How did the inhibition at 40 µM turn out when C=CC(=O)N1C[C@@H](O)[C@H](Nc2cccc(C(F)(F)F)c2)C1 [Compound I-62, 1-((3R,4R)-3-hydroxy-4-((3-(trifluoromethyl)phenyl)amino)pyrrolidin-1-yl)prop-2-en-1-one] was run?
Answer: The inhibition at 40 µM was 70%.

Question: O=C(CCl)Nc1ccccc1Nc1cccc(C(F)(F)F)c1 [Compound I-31, 2-chloro-N-(2-((3-(trifluoromethyl)phenyl)amino)phenyl)acetamide] was tested. Which inhibition at 40 µM did it give?
Answer: The inhibition at 40 µM was 90%.

Question: Which inhibition at 40 µM does the source give for C=CC(=O)N1CCC[C@@H](Nc2cccc(C(F)(F)F)c2)C1 [Compound I-1, (R)-1-(3-((3-(trifluoromethyl)phenyl)amino)piperidin-1-yl)prop-2-en-1-one] here?
Answer: The inhibition at 40 µM was 50%.

Question: For C=CC(=O)N1CC[C@H](Nc2cccc(C(F)(F)F)c2N)C1 [Compound I-65, (S)-1-(3-((2-amino-3-(trifluoromethyl)phenyl)amino)pyrrolidin-1-yl)prop-2-en-1-one], which inhibition at 40 µM is on record?
Answer: The inhibition at 40 µM was 90%.

Question: Which inhibition at 40 µM does the source give for CN(C)C/C=C/C(=O)N1CC[C@H](Nc2cccc(C(F)(F)F)c2)C1 [Compound I-47, (S,E)-4-(dimethylamino)-1-(3-((3-(trifluoromethyl)phenyl)amino)pyrrolidin-1-yl)but-2-en-1-one] here?
Answer: Its inhibition at 40 µM is 50%.

Question: C#Cc1cc(N[C@@H]2CCCN(C(=O)CCl)C2)cc(C(F)(F)F)c1 [Compound I-18] was tested. Which inhibition at 40 µM did it give?
Answer: The inhibition at 40 µM was 50%.

Question: How did the inhibition at 40 µM turn out when C=CC(=O)N1CC[C@H](N(C)c2cccc(C(F)(F)F)c2)C1 [Compound I-48, (S)-1-(3-(methyl(3-(trifluoromethyl)phenyl)amino)pyrrolidin-1-yl)prop-2-en-1-one] was run?
Answer: The inhibition at 40 µM was 50%.

Question: With C=CC(=O)N1CCC(Nc2cccc(C(F)(F)F)c2)C1 (stereo not shown) [Compound I-11, 1-(3-((3-(trifluoromethyl)phenyl)amino)pyrrolidin-1-yl)prop-2-en-1-one] as the compound, how does the inhibition at 40 µM read?
Answer: The inhibition at 40 µM was 90%.

Question: How did the inhibition at 40 µM turn out when O=C(CCl)N1CC(c2cccc(C(F)(F)F)c2)c2ccccc21 (stereo not shown) [Compound I-35, 2-chloro-1-(3-(3-(trifluoromethyl)phenyl)indolin-1-yl)ethan-1-one] was run?
Answer: The inhibition at 40 µM was 70%.

Question: Which inhibition at 40 µM does the source give for O=C(CCl)N1CCC[C@H](Nc2cccc(C(F)(F)F)c2)C1 [Compound I-14, (S)-2-chloro-1-(3-((3-(trifluoromethyl)phenyl)amino)piperidin-1-yl)ethan-1-one] here?
Answer: The inhibition at 40 µM was 70%.

Question: How did the inhibition at 40 µM turn out when C=CC(=O)N1CC[C@H](Nc2cc(Cl)cc(C(F)(F)F)c2)C1 [Compound I-52, (S)-1-(3-((3-chloro-5-(trifluoromethyl)phenyl)amino)pyrrolidin-1-yl)prop-2-en-1-one] was run?
Answer: Its inhibition at 40 µM is 70%.

Question: How did the inhibition at 40 µM turn out when CCC(=O)N1CCC(Nc2cccc(C(F)(F)F)c2)C1 (stereo not shown) [Compound I-27, 1-(3-((3-(trifluoromethyl)phenyl)amino)pyrrolidin-1-yl)propan-1-one] was run?
Answer: Its inhibition at 40 µM is 70%.

Question: For C=CC(=O)N1CC[C@H](Nc2cccc(C(F)(F)F)c2C)C1 [Compound I-57, (S)-1-(3-((2-methyl-3-(trifluoromethyl)phenyl)amino)pyrrolidin-1-yl)prop-2-en-1-one], which inhibition at 40 µM is on record?
Answer: The inhibition at 40 µM was 70%.

Question: With C=CC(=O)N1CC[C@H](Nc2cc(C(F)(F)F)ccc2OC)C1 [Compound I-56, (S)-1-(3-((2-methoxy-5-(trifluoromethyl)phenyl)amino)pyrrolidin-1-yl)prop-2-en-1-one] as the compound, how does the inhibition at 40 µM read?
Answer: The inhibition at 40 µM was 50%.

Question: With C=CC(=O)N1CC[C@H](Nc2cccc(N3CCN(C)CC3)c2)C1 [Compound I-49, (S)-1-(3-((3-(4-methylpiperazin-1-yl)phenyl)amino)pyrrolidin-1-yl)prop-2-en-1-one] as the compound, how does the inhibition at 40 µM read?
Answer: Its inhibition at 40 µM is 50%.

Question: O=C(CCl)N1CCC[C@@H](Oc2cccc(C(F)(F)F)c2)C1 [Compound I-20, (R)-2-chloro-1-(3-(3-(trifluoromethyl)phenoxy)piperidin-1-yl)ethan-1-one] was tested. Which inhibition at 40 µM did it give?
Answer: Its inhibition at 40 µM is 70%.

Question: For O=C(CCl)N1CCCC(Nc2cccc(C(F)(F)F)c2)C1 (stereo not shown) [Compound I-19, 2-chloro-1-(3-((3-(trifluoromethyl)phenyl)amino)piperidin-1-yl)ethan-1-one], which inhibition at 40 µM is on record?
Answer: Its inhibition at 40 µM is 50%.

Question: C=CC(=O)N1CCC[C@H](Nc2cccc(C(F)(F)F)c2)C1 [Compound I-15, (S)-1-(3-((3-(trifluoromethyl)phenyl)amino)piperidin-1-yl)prop-2-en-1-one] was tested. Which inhibition at 40 µM did it give?
Answer: Its inhibition at 40 µM is 70%.

Question: For C=CC(=O)N1CC[C@H](Nc2cncc(C(F)(F)F)c2)C1 [Compound I-61, (S)-1-(3-((5-(trifluoromethyl)pyridin-3-yl)amino)pyrrolidin-1-yl)prop-2-en-1-one], which inhibition at 40 µM is on record?
Answer: The inhibition at 40 µM was 50%.

— patent publication US20220402869A1, “TRANSCRIPTIONAL ENHANCED ASSOCIATE DOMAIN (TEAD) TRANSCRIPTION FACTOR INHIBITORS AND USES THEREOF” (Dana-Farber Cancer Institute, Inc., priority 2018, published 2022)
